Patent publication US20230021483A1, “[…] […] METHOD AND CLASSIFICATION OF PHARMACEUTICAL COMPONENTS BY USING TRANSCRIPTOMES” (National Institutes of Biomedical Innovation, Health and …, priority 2016, published 2023)
Several values for one entry are separate records, joined by “and”; a condition that tells them apart may be missing. Identical values can stand only once.

Tested on: preferentially upregulated genes in LV, SP, LN
Assay: Z-score-based differential gene expression analysis (adjuvant group- or adjuvant-associated genes, 40 module mapping, TargetMine annotation)
Assay type: in vivo, C57BL/6 mice
Parameters: key to z sum, 1458589_at ---: sum of the per-gene fold-change z-scores of the triplicate samples
Conditions: ID
Summary of the method: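 Per-sample fold-change values converted to gene-wise z-scores within each organ's data set, then triplicate z-scores summed per adjuvant. Genes with summed score >3 taken as preferentially expressed; gene groups defined by combined per-adjuvant z-score thresholds (z>1 to z>3) specific to each organ.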

Nc1nc2c(ncn2[C@@H]2O[C@@H]3COP(=O)(O)O[C@H]4[C@@H](O)[C@H](n5cnc6c(=O)[nH]c(N)nc65)O[C@@H]4COP(=O)(O)O[C@H]3[C@H]2O)c(=O)[nH]1 [cdiGMP, Cyclic diguanylate monophosphate]
z sum, 1428027_at LOC100653389 (LN, Modules 26): 3.943
z sum, 1419721_at Niacr1 (LN, Modules 27): 3.925
z sum, 1418424_at Tnfaip6 (LN, Modules 29): 3.961
z sum, 1419534_at Olr1 (LN, Modules 29): 3.953
z sum, 1421457_a_at Samsn1 (LN, Modules 29): 3.927
z sum, 1422305_at Ifnb1 (LN, Modules 29): 3.959
z sum, 1423028_at Ifna2 (LN, Modules 29): 3.966
z sum, 1425837_a_at Ccrn4l (LN, Modules 29): 3.961
z sum, 1436387_at C330006P03Rik///Homer1 (LN, Modules 29): 3.967
z sum, 1439349_at Sbno2 (LN, Modules 29): 3.94
z sum, 1444010_at Eif4e (LN, Modules 29): 3.936
z sum, 1448325_at Ppp1r15a (LN, Modules 29): 3.957
z sum, 1449311_at Bach1 (LN, Modules 29): 3.924
z sum, 1450297_at Il6 (LN, Modules 29): 3.956
z sum, 1455197_at Rnd1 (LN, Modules 29): 3.976
z sum, 1455899_x_at Socs3 (LN, Modules 29): 3.93
z sum, 1417252_at Ptgs2 (LN, Modules 34): 3.953
z sum, 1417263_at Ptgs2 (LN, Modules 34): 3.945
z sum, 1419132_at Tfr2 (LN, Modules 34): 3.95
z sum, 1421473_at Il1a (LN, Modules 34): 3.96
z sum, 1439981_at Tespa1 (LN, Modules 35): 3.95
z sum, 1441843_s_at 5230400M03Rik (LN, Modules 35): 3.967
z sum, 1442556_at --- (LN, Modules 35): 3.981
z sum, 1443414_at C78513 (LN, Modules 35): 3.922
z sum, 1444598_at --- (LN, Modules 35): 3.93
z sum, 1445534_at --- (LN, Modules 35): 3.938
z sum, 1446245_at --- (LN, Modules 35): 3.919
z sum, 1457944_at --- (LN, Modules 35): 3.94
z sum, 1458376_at B930025B16Rik (LN, Modules 35): 3.963
z sum, 1459144_at --- (LN, Modules 35): 3.966
z sum, 1425687_at Cflar (LN, Modules 36): 3.968
z sum, 1427736_a_at Ccrl2 (LN, Modules 36): 3.958
z sum, 1449169_at Has2 (LN, Modules 36): 3.922
z sum, 1453636_at Pcgf5 (LN, Modules 36): 3.972
z sum, 1457888_at --- (LN, Modules 36): 3.925
z sum, 1419508_at Ripk1 (LN, Modules 37): 3.938
z sum, 1421578_at Ccl4 (LN, Modules 37): 3.99
z sum, 1421679_a_at Cdkn1a (LN, Modules 37): 3.98
z sum, 1424638_at Cdkn1a (LN, Modules 37): 3.93
z sum, 1433508_at Klf6 (LN, Modules 37): 3.947
z sum, 1434350_at Csrnp1 (LN, Modules 37): 3.966
z sum, 1439680_at Tnfsf10 (LN, Modules 37): 3.927
z sum, 1448724_at Cish (LN, Modules 37): 3.94
z sum, 1451340_at Arid5a (LN, Modules 37): 3.953
z sum, 1453851_a_at Gadd45g (LN, Modules 37): 3.961
z sum, 1457404_at Nfkbiz (LN, Modules 37): 3.989
z sum, 1458589_at --- (LN, Modules 37): 3.945
z sum, 1422054_a_at 5kil (LN, Modules 40): 3.92
z sum, 1428735_at Cd69 (LN, Modules 40): 3.941
z-score of fold change, 1428027_at LOC100653389 (LN, samples x1-x3, Modules 26): 1.302 and 1.534 and 1.106
z-score of fold change, 1419721_at Niacr1 (LN, samples x1-x3, Modules 27): 1.493 and 1.403 and 1.03
z-score of fold change, 1418424_at Tnfaip6 (LN, samples x1-x3, Modules 29): 1.141 and 1.631 and 1.189
z-score of fold change, 1419534_at Olr1 (LN, samples x1-x3, Modules 29): 1.484 and 1.094 and 1.375
z-score of fold change, 1421457_a_at Samsn1 (LN, samples x1-x3, Modules 29): 1.437 and 1.192 and 1.298
z-score of fold change, 1422305_at Ifnb1 (LN, samples x1-x3, Modules 29): 0.997 and 1.431 and 1.532
z-score of fold change, 1423028_at Ifna2 (LN, samples x1-x3, Modules 29): 1.076 and 1.31 and 1.58
z-score of fold change, 1425837_a_at Ccrn4l (LN, samples x1-x3, Modules 29): 1.34 and 1.091 and 1.529
z-score of fold change, 1436387_at C330006P03Rik///Homer1 (LN, samples x1-x3, Modules 29): 1.372 and 1.437 and 1.158
z-score of fold change, 1439349_at Sbno2 (LN, samples x1-x3, Modules 29): 1.367 and 1.407 and 1.166
z-score of fold change, 1444010_at Eif4e (LN, samples x1-x3, Modules 29): 1.659 and 1.049 and 1.227
z-score of fold change, 1448325_at Ppp1r15a (LN, samples x1-x3, Modules 29): 1.314 and 1.203 and 1.441
z-score of fold change, 1449311_at Bach1 (LN, samples x1-x3, Modules 29): 1.178 and 1.558 and 1.189
z-score of fold change, 1450297_at Il6 (LN, samples x1-x3, Modules 29): 1.437 and 0.989 and 1.53
z-score of fold change, 1455197_at Rnd1 (LN, samples x1-x3, Modules 29): 1.54 and 1.27 and 1.166
z-score of fold change, 1455899_x_at Socs3 (LN, samples x1-x3, Modules 29): 1.206 and 1.544 and 1.18
z-score of fold change, 1417252_at Ptgs2 (LN, samples x1-x3, Modules 34): 1.507 and 1.214 and 1.232
z-score of fold change, 1417263_at Ptgs2 (LN, samples x1-x3, Modules 34): 1.51 and 0.965 and 1.47
z-score of fold change, 1419132_at Tlr2 (LN, samples x1-x3, Modules 34): 1.576 and 1.128 and 1.246
z-score of fold change, 1421473_at Il1a (LN, samples x1-x3, Modules 34): 1.525 and 1.178 and 1.257
z-score of fold change, 1439981_at Tespa1 (LN, samples x1-x3, Modules 35): 1.343 and 1.427 and 1.18
z-score of fold change, 1441843_s_at 5230400M03Rik (LN, samples x1-x3, Modules 35): 1.442 and 1.354 and 1.171
z-score of fold change, 1442556_at --- (LN, samples x1-x3, Modules 35): 1.421 and 1.315 and 1.245
z-score of fold change, 1443414_at C78513 (LN, samples x1-x3, Modules 35): 1.402 and 0.963 and 1.557
z-score of fold change, 1444598_at --- (LN, samples x1-x3, Modules 35): 1.559 and 1.318 and 1.053
z-score of fold change, 1445534_at --- (LN, samples x1-x3, Modules 35): 1.345 and 1.515 and 1.078
z-score of fold change, 1446245_at --- (LN, samples x1-x3, Modules 35): 1.239 and 1.22 and 1.46
z-score of fold change, 1457944_at --- (LN, samples x1-x3, Modules 35): 1.366 and 1.428 and 1.146
z-score of fold change, 1458376_at B930025B16Rik (LN, samples x1-x3, Modules 35): 1.188 and 1.502 and 1.273
z-score of fold change, 1459144_at --- (LN, samples x1-x3, Modules 35): 1.275 and 1.199 and 1.493
z-score of fold change, 1425687_at Cflar (LN, samples x1-x3, Modules 36): 1.199 and 1.3 and 1.469
z-score of fold change, 1427736_a_at Ccrl2 (LN, samples x1-x3, Modules 36): 1.328 and 1.075 and 1.554
z-score of fold change, 1449169_at Has2 (LN, samples x1-x3, Modules 36): 1.306 and 1.158 and 1.458
z-score of fold change, 1453636_at Pcgf5 (LN, samples x1-x3, Modules 36): 1.332 and 1.143 and 1.496
z-score of fold change, 1457888_at --- (LN, samples x1-x3, Modules 36): 1.466 and 1.08 and 1.38
z-score of fold change, 1419508_at Ripk1 (LN, samples x1-x3, Modules 37): 1.035 and 1.437 and 1.467
z-score of fold change, 1421578_at Ccl4 (LN, samples x1-x3, Modules 37): 1.402 and 1.22 and 1.368
z-score of fold change, 1421679_a_at Cdkn1a (LN, samples x1-x3, Modules 37): 1.429 and 1.421 and 1.13
z-score of fold change, 1424638_at Cdkn1a (LN, samples x1-x3, Modules 37): 1.624 and 1.232 and 1.074
z-score of fold change, 1433508_at Klf6 (LN, samples x1-x3, Modules 37): 1.271 and 1.413 and 1.263
z-score of fold change, 1434350_at Csrnp1 (LN, samples x1-x3, Modules 37): 1.353 and 1.305 and 1.308
z-score of fold change, 1439680_at Tnfsf10 (LN, samples x1-x3, Modules 37): 1.169 and 1.36 and 1.399
z-score of fold change, 1448724_at Cish (LN, samples x1-x3, Modules 37): 1.476 and 1.357 and 1.106
z-score of fold change, 1451340_at Arid5a (LN, samples x1-x3, Modules 37): 1.5 and 1.292 and 1.161
z-score of fold change, 1453851_a_at Gadd45g (LN, samples x1-x3, Modules 37): 1.368 and 1.383 and 1.21
z-score of fold change, 1457404_at Nfkbiz (LN, samples x1-x3, Modules 37): 1.371 and 1.232 and 1.386
z-score of fold change, 1458589_at --- (LN, samples x1-x3, Modules 37): 1.137 and 1.339 and 1.469
z-score of fold change, 1422054_a_at 5kil (LN, samples x1-x3, Modules 40): 1.491 and 1.218 and 1.211
z-score of fold change, 1428735_at Cd69 (LN, samples x1-x3, Modules 40): 1.22 and 1.344 and 1.378
Adar 1425405_a_at (Group G1, Modules 20) (LV, sample x1): 1.58
Adar 1434268_at (Group G1, Modules 20) (LV, sample x1): 1.7
Ddx58 1436562_at (Group G1, Modules 20) (LV, sample x1): 0.94
Ddx58 1456890_at (Group G1, Modules 20) (LV, sample x1): 1.2
Eif2ak2 1422005_at (Group G1, Modules 20) (LV, sample x1): 1.02
G3bp2 1421323_a_at (Group G1, Modules 20) (LV, sample x1): 1.74
Gm9706///Isg15 1431591_s_at (Group G1, Modules 20) (LV, sample x1): 1.01
H2-T10///H2-T22///H2-T9 1449875_s_at (Group G1, Modules 20) (LV, sample x1): 1.07
Ifih1 1426276_at (Group G1, Modules 20) (LV, sample x1): 0.89
Ifit1 1450783_at (Group G1, Modules 20) (LV, sample x1): 2.21
Ifit3 1449025_at (Group G1, Modules 20) (LV, sample x1): 1.7
Irf7 1417244_a_at (Group G1, Modules 20) (LV, sample x1): 0.85
Irgm1 1418825_at (Group G1, Modules 20) (LV, sample x1): 1.33
Mndal 1426906_at (Group G1, Modules 20) (LV, sample x1): 1.77
Pml 1448757_at (Group G1, Modules 20) (LV, sample x1): 1.41
Pml 1456103_at (Group G1, Modules 20) (LV, sample x1): 1.31
Rnf213 1455500_at (Group G1, Modules 20) (LV, sample x1): 2.07
Rsad2 1436058_at (Group G1, Modules 20) (LV, sample x1): 2.39
Shisa5 1423986_a_at (Group G1, Modules 20) (LV, sample x1): 0.72
Shisa5 1437503_a_at (Group G1, Modules 20) (LV, sample x1): 1.05
Stat1 1450033_a_at (Group G1, Modules 20) (LV, sample x1): 1.49
